“Also recorded” adds a separate entry of the source.
Assays:
Format in all cases: cell-based, Chlamydomonas reinhardtii
[1] = tested on: parent strain (wild-type strain) CC503; experiment: Flow cytometry of particle densities in the culture (TAP medium, semi-heterotrophic); conditions: addition of 8 mM BSO, 45 μE/m^2/sec, number of particles in 1 mL culture solution divided by the cube of 10
Description: (§1) The GSH1 overexpressing strain produced in Example 1 was cultured under a semi-heterotrophic condition with the use of tris-acetate-phosphate (TAP) medium having pH7 (see Proc. Natl. Acad. Sci. USA, 54, 1665-1669.), and a growth capacity and a starch production capacity of the GSH1 overexpressing strain were evaluated. A CC503 strain (hereinafter referred to as “parent strain (wild-type strain)”) which is a wild-type Chlamydomonas strain was used as a control.
(§2) Flow cytometry was carried out for more detailed analysis of the states of the GSH1 overexpressing strain of Sample 4 and the parent strain (wild-type strain) of Sample 8. Specifically, the cells of Samples 4 and 8 were irradiated with excitation light of 488 nm, and fluorescence intensity in the vicinity of 600 nm was measured. The fluorescence in the vicinity of 600 nm corresponds to chlorophyll fluorescence. Along with the chlorophyll fluorescence, fluorescent particles (produced by Beckman Coulter Inc., product name: Flow count) were used as an internal control for measuring a cell density. In this way, fluorescence in the range from 525 nm to 700 nm emitted by the excitation light of 488 nm was measured. Further, forward-scattered light and lateral-scattered light were measured so as to measure cell (particle) size and cell (particle) internal complexity.
(§3) Note that the number of cells (particles) shown in Tables 3 and 4, which is expressed by a value obtained by dividing the number of particles contained in 1 mL of the culture solution by the cube of 10, was found on the basis of the value of the internal control.

[2] = tested on: GSH1 overexpressing strain; experiment: as above; conditions: addition of 8 mM BSO, 45 μE/m^2/sec, number of particles in 1 mL culture solution divided by the cube of 10
Description: as §1, §2, §3

[3] = tested on: GSH1 overexpressing strain; experiment: Starch production capacity / discharge of starch grains to outside of cells (clouding of culture solution, iodostarch reaction); conditions: BSO added to TAP medium, final concentration 8 mM
Description: as §1
L-Buthionine-sulfoximine (abbreviated as BSO (produced by Sigma-Aldrich Corporation, Model No. B2515) added to TAP medium in Samples 2 and 6 is an inhibitor for GSH synthesis.
(a) of FIG. 1 is a graph showing growth capacities of the respective GSH1 overexpressing strains, and (b) of FIG. 1 is a view showing states of respective culture solutions 309 hours after start of culturing. (a) of FIG. 2 is a graph showing growth capacities of respective parent strains (wild-type strains), and (b) of FIG. 2 is a view showing states of respective culture solutions 215 hours after start of culturing. […] The optical density represented by the vertical axis was measured by a device (manufactured by TAITEC CORPORATION, ODSensor-S/ODBox-A) for measuring an OD value on the basis of a transmission amount of infrared rays (950 nm). […]

Compound: CCCCS(=N)(=O)CCC(N)C(=O)O [BSO, L-Buthionine-sulfoximine]
- density of particles which did not emit chlorophyll-derived fluorescence as a result of irradiation of excitation light (488 nm) (starch grains) [1]: 27
- density of particles which emitted chlorophyll-derived fluorescence as a result of irradiation of excitation light (488 nm) [1]: 19,633
- density of particles which did not emit chlorophyll-derived fluorescence as a result of irradiation of excitation light (488 nm) (starch grains) [2]: 602
- density of particles which emitted chlorophyll-derived fluorescence as a result of irradiation of excitation light (488 nm) [2]: 4,228
- discharge of starch to an outside of the cells [3]: starch was not discharged to an outside of the cells; also recorded: starch was not discharged into an outside of the cells
